Patent US20240246946A1, “MODULATORS OF TREX1” (Constellation Pharmaceuticals, Inc., priority 2021, published 2024)

Experiments:
full length human TREX1 = biological target: T1, full length human TREX1 (Homo sapiens, UniProt Q9NSU2); experiment: hTREX1 Biochemical Assay (fluorescence, dsDNA substrate degradation); conditions: biochemical, read-out: hTREX1 IC50
T1 construct: N-terminally His-Tev tagged full length human TREX1; made in house; host or cells: E. coli
T1 sequence (Q9NSU2 1-314): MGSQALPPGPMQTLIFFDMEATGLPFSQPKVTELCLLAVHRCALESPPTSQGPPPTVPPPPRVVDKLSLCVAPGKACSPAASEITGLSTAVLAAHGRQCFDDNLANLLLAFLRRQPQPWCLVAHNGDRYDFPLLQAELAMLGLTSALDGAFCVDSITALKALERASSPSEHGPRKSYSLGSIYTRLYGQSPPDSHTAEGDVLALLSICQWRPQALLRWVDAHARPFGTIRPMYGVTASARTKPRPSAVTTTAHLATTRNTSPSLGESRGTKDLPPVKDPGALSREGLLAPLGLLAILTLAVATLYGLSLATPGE
In short: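 Cleavage of 60 nM TEX615/quencher-labelled dsDNA in pH 7.4 Tris buffer with 5 mM MgCl2, 1.0% DMSO, run 18 hours at 25° C, EDTA-quenched; fluorescence read-out.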

full length mouse TREX1 = biological target: T2, full length mouse TREX1 (Mus musculus, UniProt Q91XB0); experiment: mTREX1 Biochemical Assay (fluorescence, dsDNA substrate degradation); conditions: biochemical, read-out: mTREX1 IC50
T2 construct: N-terminally His-Tev tagged full length mouse TREX1; made in house; host or cells: E. coli
T2 sequence (Q91XB0 1-314): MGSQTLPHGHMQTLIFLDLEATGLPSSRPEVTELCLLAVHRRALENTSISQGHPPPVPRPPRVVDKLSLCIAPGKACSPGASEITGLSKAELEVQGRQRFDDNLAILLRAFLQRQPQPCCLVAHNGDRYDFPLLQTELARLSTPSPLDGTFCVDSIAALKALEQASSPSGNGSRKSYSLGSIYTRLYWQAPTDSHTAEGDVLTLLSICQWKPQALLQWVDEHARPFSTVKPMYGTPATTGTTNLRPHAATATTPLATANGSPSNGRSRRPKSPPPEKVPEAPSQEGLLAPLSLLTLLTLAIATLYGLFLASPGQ
In short: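 Reaction run 18 h at 25° C. with 60 nM TEX615/quencher-labelled dsDNA and 6 pM mouse TREX1 in Tris buffer (pH 7.4, 5 mM MgCl2, 1.0% DMSO), enzyme having sat 4 h with compound across 10 concentrations. EDTA quench; substrate degradation measured as fluorescence increase.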

[1] = biological target: T3, human TREX2 (residues M44-A279) (Homo sapiens, UniProt Q9BQ50); experiment: hTREX2 Biochemical Assay (fluorescence, dsDNA substrate degradation); conditions: biochemical selectivity for hTREX1 vs hTREX2
T3 construct: human TREX2 (residues M44-A279, expressed in E. coli); made in house; host or cells: E. coli
T3 sequence (Q9BQ50 44-279 isoform Q9BQ50-1): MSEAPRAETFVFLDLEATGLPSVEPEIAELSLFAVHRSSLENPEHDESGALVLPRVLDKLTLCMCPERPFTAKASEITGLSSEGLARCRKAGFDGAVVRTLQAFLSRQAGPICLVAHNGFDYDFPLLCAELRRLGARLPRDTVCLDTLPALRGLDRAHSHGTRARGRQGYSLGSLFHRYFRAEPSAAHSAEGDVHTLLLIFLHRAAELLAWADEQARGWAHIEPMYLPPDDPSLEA
Protocol: Degradation of the dsDNA liberates free fluorophore to produce a fluorescent signal. Specifically, 7.5 μL of N-terminally His-Tev tagged human TREX2 (residues M44-A279, expressed in E. coli and purified in house) in reaction buffer (50 mM Tris, 150 mM NaCl, 2 mM DTT, 0.1 mg/mL BSA, 0.01% (w/v) Tween-20, 5 mM MgCl2, pH 7.4) was added to a 384-well Black ProxiPlate Plus (PerkinElmer) which already contained compound (150 nL) at varying concentrations as a 10 point dose-response in DMSO. The plate was incubated at 25° C. for 4 hours. Reactions were initiated by adding 7.5 μL of dsDNA substrate (Strand A: 5′ TEX615/GCT AGG CAG 3′; Strand B: 5′ CTG CCT AGC/IAbRQSp (IDT)) in reaction buffer. Final concentrations were 50 pM TREX2, 60 nM dsDNA substrate in reaction buffer with 1.0% DMSO (v/v). After 18 hours at 25° C., reactions were quenched by the addition of 2 μL of 500 mM EDTA. Final concentrations in the quenched reaction mixture were 44 pM TREX2, 53 nM DNA and 59 mM EDTA in a volume of 17 μL. After a 5-minute incubation at room temperature, plates were read in an EnVision plate reader (PerkinElmer) measuring fluorescence at 615 nm following excitation w/570 nm light.

IC50 (full length human TREX1) [nM] | IC50 (full length mouse TREX1) [nM] | hTREX1 vs hTREX2 selectivity [1] | SMILES
> 10 | > 10 | A (A = <25 fold selective for hTREX1) | CCn1cc(C(c2cc(F)ccc2Cl)C(C)c2nc(C(=O)Nc3cnoc3)c(O)c(=O)n2C)cn1 (single isomer, unassigned) [Example 60 D2E1]
> 10 | > 10 | A (A = <25 fold selective for hTREX1) | CCn1cc(C(c2cc(F)ccc2Cl)C(C)c2nc(C(=O)Nc3cnoc3)c(O)c(=O)n2C)cn1 (single isomer, unassigned) [Example 60 D2E2]
1 to 10 | > 10 | C (C = >50 fold selective for hTREX1) | Cc1cc(C(c2ccccc2C#N)C(C)c2nc(C(=O)Nc3cnoc3)c(O)c(=O)n2C)n(C)n1 (single isomer, unassigned) [Example 63 D1E2]
< 1 | 1 to 10 | C (C = >50 fold selective for hTREX1) | Cc1cn(C)nc1C(c1ccccc1C#N)C(C)c1nc(C(=O)Nc2cnoc2)c(O)c(=O)n1C (single isomer, unassigned) [Example 64 D2E1]
1 to 10 | > 10 | C (C = >50 fold selective for hTREX1) | CCn1ncc(C(c2ccc(F)cc2C#N)C(C)c2nc(C(=O)Nc3cnoc3)c(O)c(=O)n2C)c1C (single isomer, unassigned) [Example 65 D2E1]
< 1 | 1 to 10 | C (C = >50 fold selective for hTREX1) | COCCn1cc(C(c2cc(F)c(F)cc2Cl)C(C)c2nc(C(=O)Nc3cnoc3)c(O)c(=O)n2C)cn1 (single isomer, unassigned) [Example 73 D1E1]
> 10 | > 10 | A (A = <25 fold selective for hTREX1) | CC(c1nc(C(=O)Nc2cnoc2)c(O)c(=O)n1C)C(c1cnn(C)c1)c1ccccc1Cl (single isomer, unassigned) [Example 77 D2E2]
> 10 | > 10 | A (A = <25 fold selective for hTREX1) | Cc1nn(C)c(C)c1C(c1ccccc1C#N)C(C)c1nc(C(=O)Nc2cnoc2)c(O)c(=O)n1C (single isomer, unassigned) [Example 78 D1E2]
> 10 | > 10 | A (A = <25 fold selective for hTREX1) | CC(c1nc(C(=O)Nc2cnoc2)c(O)c(=O)n1C)C(c1nnn(C)n1)c1ccccc1C#N (single isomer, unassigned) [Example 79 D1E1]
1 to 10 | > 10 | A (A = <25 fold selective for hTREX1) | CC(c1nc(C(=O)Nc2cnoc2)c(O)c(=O)n1C)C(c1nnn(C)n1)c1ccccc1C#N (single isomer, unassigned) [Example 79 D2E1]
> 10 | > 10 | A (A = <25 fold selective for hTREX1) | CC(c1nc(C(=O)Nc2cnoc2)c(O)c(=O)n1C)C(c1nnn(C)n1)c1ccccc1C#N (single isomer, unassigned) [Example 79 D2E2]
> 10 | > 10 | C (C = >50 fold selective for hTREX1) | CC(c1nc(C(=O)Nc2cnoc2)c(O)c(=O)n1C)C(c1cnn(C)c1)c1ccc(O)cc1C#N (single isomer, unassigned) [Example 80 D1E2]
> 10 | > 10 | A (A = <25 fold selective for hTREX1) | Cc1ncc(C(c2ccccc2C#N)C(C)c2nc(C(=O)Nc3cnoc3)c(O)c(=O)n2C)nc1C (single isomer, unassigned) [Example 81 D1E1]
> 10 | > 10 | A (A = <25 fold selective for hTREX1) | Cc1nccc(C(c2ccccc2C#N)C(C)c2nc(C(=O)Nc3cnoc3)c(O)c(=O)n2C)n1 (single isomer, unassigned) [Example 83 D1E2]
> 10 | > 10 | A (A = <25 fold selective for hTREX1) | Cc1nccc(C(c2ccccc2C#N)C(C)c2nc(C(=O)Nc3cnoc3)c(O)c(=O)n2C)n1 (single isomer, unassigned) [Example 83 D2E2]
> 10 | > 10 | A (A = <25 fold selective for hTREX1) | CCn1cc(C(c2ccccc2Cl)C(C)c2nc(C(=O)Nc3cnoc3)c(O)c(=O)n2C)cn1 (single isomer, unassigned) [Example 85 D2E2]
1 to 10 | > 10 | A (A = <25 fold selective for hTREX1) | CC(c1nc(C(=O)Nc2cnoc2)c(O)c(=O)n1C)C(c1cnn(CC(C)(C)O)c1)c1ccccc1Cl (single isomer, unassigned) [Example 86 D1E2]
> 10 | > 10 | A (A = <25 fold selective for hTREX1) | CC(c1nc(C(=O)Nc2cnoc2)c(O)c(=O)n1C)C(c1cnn(CC(C)(C)O)c1)c1ccccc1Cl (single isomer, unassigned) [Example 86 D2E1]

SMILES | IC50 (full length human TREX1) [nM] | IC50 (full length mouse TREX1) [nM] | hTREX1 vs hTREX2 selectivity [1]
CC(c1nc(C(=O)Nc2cnoc2)c(O)c(=O)n1C)C(c1cnccn1)c1ccccc1C#N (single isomer, unassigned) [Example 66 D1E1] | < 1 | < 1 | B (B = 25 to 50-fold selective for hTREX1)
CCn1ncc(C(c2ccccc2C#N)C(C)c2nc(C(=O)Nc3cnoc3)c(O)c(=O)n2C)c1C (single isomer, unassigned) [Example 68 D2E1] | < 1 | > 10 | B (B = 25 to 50-fold selective for hTREX1)
COCCn1ncc(C(c2ccccc2C#N)C(C)c2nc(C(=O)Nc3cnoc3)c(O)c(=O)n2C)c1C (single isomer, unassigned) [Example 69 D2E2] | 1 to 10 | > 10 | B (B = 25 to 50-fold selective for hTREX1)
CC(c1nc(C(=O)Nc2cnoc2)c(O)c(=O)n1C)C(c1cnn(C)c1)c1ccc(O)cc1C#N (single isomer, unassigned) [Example 80 D2E2] | 1 to 10 | > 10 | B (B = 25 to 50-fold selective for hTREX1)
Cc1ncc(C(c2ccccc2C#N)C(C)c2nc(C(=O)Nc3cnoc3)c(O)c(=O)n2C)nc1C (single isomer, unassigned) [Example 81 D2E2] | > 10 | > 10 | B (B = 25 to 50-fold selective for hTREX1)
Cc1cnc(C)c(C(c2ccccc2C#N)C(C)c2nc(C(=O)Nc3cnoc3)c(O)c(=O)n2C)n1 (single isomer, unassigned) [Example 82 D1E2] | > 10 | > 10 | B (B = 25 to 50-fold selective for hTREX1)
Cc1cnc(C)c(C(c2ccccc2C#N)C(C)c2nc(C(=O)Nc3cnoc3)c(O)c(=O)n2C)n1 (single isomer, unassigned) [Example 82 D2E2] | > 10 | > 10 | B (B = 25 to 50-fold selective for hTREX1)
